Measurements: PubChem BioAssay (NCI)
Values joined by “and” are separate entries in the source; they are usually repeats but may differ in a detail not shown here. Equal entries are not always repeated.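 Values below derive from 48-hour exposures of cells grown in 96-well plates, with endpoints linearly interpolated between the two concentrations bracketing the appropriate inhibition level. GI50 is the concentration that inhibits growth by half. TGI marks complete inhibition of growth.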

Columns and labels:
Assay in all cases: inhibition of tumour cell growth, NCI panel, 48 h
HT29 colon = system: HT29 colon
SK-OV-3 ovarian = system: SK-OV-3 ovarian
SNB-75 CNS = system: SNB-75 CNS
OVCAR-8 ovarian = system: OVCAR-8 ovarian
OVCAR-4 ovarian = system: OVCAR-4 ovarian
NCI-H226 lung = system: NCI-H226 lung
HCC-2998 colon = system: HCC-2998 colon
SF-295 CNS = system: SF-295 CNS
EKVX NSCLC = system: EKVX NSCLC
MDA-MB-435 = system: MDA-MB-435

SMILES	TGI (HT29 colon)	TGI (SK-OV-3 ovarian) [µM]	TGI (SNB-75 CNS)	TGI (OVCAR-8 ovarian)	TGI (OVCAR-4 ovarian) [µM]	TGI (NCI-H226 lung)	TGI (HCC-2998 colon)	TGI (SF-295 CNS) [µM]	TGI (EKVX NSCLC)	GI50 (HT29 colon) [µM]	GI50 (SK-OV-3 ovarian) [µM]	GI50 (SNB-75 CNS) [µM]	GI50 (OVCAR-8 ovarian) [µM]	GI50 (OVCAR-4 ovarian) [µM]	GI50 (NCI-H226 lung) [µM]	GI50 (HCC-2998 colon) [µM]	GI50 (SF-295 CNS) [µM]	GI50 (EKVX NSCLC) [µM]	GI50 (MDA-MB-435) [µM]	TGI (MDA-MB-435) [µM]
CN(C)CCNC(=O)c1cccc2c1nc(-c1cccnc1)c1ccccc12	26.9 µM	31.2	22 µM	54.8 µM	18.4	16.5 µM	20.2 µM	20.1	18.8 µM											
O=C(CC1(O)C(=O)Nc2c(Cl)ccc(Cl)c21)c1ccc(Cl)cc1 (stereo not drawn)	73.2 µM	90.9	64.9 µM	42.1 µM	41.4	> 100 µM	71 µM	83.4	> 100 µM											
CC(C)(C)C1CCC(O)(c2ccccc2)CC1 (stereo not drawn)	> 100 µM and 30.2 µM	> 100	> 100 µM and 60 µM	> 100 µM and 46.9 µM		> 100 µM and 43 µM	> 100 µM and 60 µM	> 100	> 100 µM and 75.3 µM											
CCC12C=C(C(=O)OC)N3c4ccccc4C4CCN(CCC1)C2C43 (stereo not drawn)	> 100 µM	> 100	> 100 µM	> 100 µM	> 100	82.5 µM	> 100 µM	> 100	> 100 µM											
N#CC1(CCCCl)CCCCC1	> 100 µM	> 100	> 100 µM	> 100 µM			> 100 µM	> 100	> 100 µM											
O=[N+]([O-])c1ccc(/C=C/c2ccc(/C=C/c3ccc([N+](=O)[O-])cc3[N+](=O)[O-])cc2)c([N+](=O)[O-])c1	> 100 µM	> 100	> 100 µM	> 100 µM	> 100	> 100 µM	> 100 µM	> 100	> 100 µM											
COc1cc2c(Oc3ccc(-c4cnc(Nc5ccc(F)cc5)n(C)c4=O)cc3F)ccnc2cc1OCCCN1CCOCC1	1.64 µM	3.39	1.91 µM	4.72 µM	7.49	8.15 µM	2.94 µM	1.99		0.311	1.84	0.61	1.87	1.74	1.16	1.48	0.663			
CN(C)[C@@H]1C(=O)C(C(=O)NCc2nc3[nH]cnc(=S)c3[nH]2)=C(O)[C@@]2(O)C(=O)C3=C(O)c4c(O)cccc4[C@@](C)(O)[C@H]3C[C@@H]12	> 100 µM	> 100	> 100 µM	> 100 µM	> 100		> 100 µM	> 100	> 100 µM	8.45	2	1.79	6.78	1.13		5.09	> 100	> 100		
C#CCCCCCC(=O)N[C@H]1C=C[C@@H]2/C=C(C)/C=C/[C@@H](C)[C@H]([C@H](C)[C@H](O)[C@@H](C)NC(C)=O)OC(=O)/C=C/C=C(C)\C=C\[C@]2(C)C1	25.1 µM	> 40	> 40 µM	> 40 µM	> 40	6.05 µM	> 40 µM	0.0182	> 40 µM	< 0.004	< 0.004	0.0127	< 0.004	3.06	0.00478	6.16	< 0.004	0.0213		
Cc1ccccc1NC(=O)C1C(=O)N(c2ccccc2C)C(=O)/C1=N\NC(N)=O (stereo not drawn)	> 100 µM		83.7 µM	> 100 µM	> 100		> 100 µM	> 100	> 100 µM											
O/N=C1/C(=C/c2ccc(OCc3ccccc3)cc2)CCCC1C(NO)c1ccc(OCc2ccccc2)cc1 (stereo not drawn)	> 100 µM	> 100	97.9 µM	> 100 µM	57.5	> 100 µM	> 100 µM		> 100 µM											
N#Cc1c(CC(=O)O)cc(=O)n2c1[nH]c1ccccc12	> 100 µM	> 100	> 100 µM	> 100 µM	> 100	> 100 µM	> 100 µM	> 100	> 100 µM											
C=CCN(CC=C)Cc1c[nH]c2ccccc12	> 100 µM	> 100	> 100 µM	69 µM	> 100		72.7 µM	> 100		41.9	> 100	> 100	11.9	> 100		27.8	21		10.9	32.9
O=C1Nc2ccc(Cl)cc2/C1=N/c1nc(-c2ccc(Cl)cc2)cs1	5.34 µM	4.54			> 100					1.87	1.5			1.39						
CNS(=O)(=O)NNS(=O)(=O)c1ccc(C)cc1	> 100 µM	> 100		> 100 µM	> 100		> 100 µM	> 100	> 100 µM											
O=C1c2ccccc2C2(O)N(c3ccccc3)C(=S)N(c3ccccc3)C12O (stereo not drawn)	> 100 µM	> 100	> 100 µM	> 100 µM	> 100	> 100 µM	> 100 µM	> 100	> 100 µM											
O=C(/C=C(\[O-])c1ccccc1)CCCCCCC(=O)/C=C(\[O-])c1ccccc1.O=C(/C=C(\[O-])c1ccccc1)CCCCCCC(=O)/C=C(\[O-])c1ccccc1.O=C(/C=C(\[O-])c1ccccc1)CCCCCCC(=O)/C=C(\[O-])c1ccccc1.[Y+3].[Y+3]	> 50 µM	> 50	22.2 µM	> 50 µM	> 50	> 50 µM	> 50 µM	> 50	> 50 µM	> 50	> 50	8.98	37.4	14.2	39.2	> 50	> 50	> 50		
CCCCCNC(=O)CCCCCCCCCCCNC(=O)CCCCCCCCCCN1C=CC(=CC=C2C=CC(=O)C=C2)C=C1	> 100 µM	> 100	68.3 µM	> 100 µM	> 100	> 100 µM	> 100 µM	> 100	> 100 µM											
COc1cc(NC(=O)COc2ccccc2)c(C(N)=O)cc1OC	> 100 µM	22.7	11.9 µM	> 100 µM	> 100	> 100 µM	68.3 µM	16.6		0.437	3.58	0.547	3.01	> 100	42.8	3.33	0.93		0.203	0.875
